Data published in US8906945B2 (priority 2009, dated 2014).
pIC50: −log10 of the molar value. Read-outs that look alike come from different tables or passages of the source.

Tests used:
[1] = system: T3SS-mediated secretion of ExoS′-βLA fusion protein from P. aeruginosa strain MDM973; experiment: microbe, parasite or virus in culture; assay type: cell-based, Pseudomonas aeruginosa
P. aeruginosa = experiment: Minimum inhibitory concentration (broth microdilution); conditions: Pseudomonas aeruginosa, read-out: MIC vs. P. aeruginosa
HeLa cells = conditions: ratio of HeLa CC50 vs ExoS′-βLA IC50
[2] = system: P. aeruginosa T3SS (exoT-luxCDABE reporter strain MDM852); assay type: cell-based, Pseudomonas aeruginosa; conditions: both at 50 μM compound; for Serum Effect: % inhibition of exoT-lux RLU in the absence of serum/% inhibition in the presence of 10% fetal calf serum; for RLU Selectivity / RLU-S (RLU Selectivity): % inhibition of exoT-lux RLU/% inhibition of lac-lux RLU; for RLU-S (RLU Selectivity): Table 5
in vitro = conditions: human
[3] = system: ExoU translocation from P. aeruginosa strain PAKΔSTYexoU into CHO cells; experiment: Inhibition of P. aeruginosa ExoU-dependent CHO cell killing (LDH release); conditions: ExoU-secreting P. aeruginosa, MOI 5
[4] = system: T3SS-mediated secretion of YopE-βLA fusion protein from Y. pestis strain JG153/pMM85; experiment: microbe, parasite or virus in culture; assay type: cell-based; conditions: Yersinia pestis, read-out: yopE-βLA IC50
[5] = Pseudomonas aeruginosa, read-out: IC50 (μM) (ExoS′-βLA assay), Table 4
[6] = Pseudomonas aeruginosa, read-out: ExoS′-βLA IC50, Table 3, secretion from P. aeruginosa strain MDM973 reduced by 50%
[7] = Pseudomonas aeruginosa, read-out: IC50 in the ExoS′-βLA secretion assay
[8] = CC50 (cytotoxicity, HeLa), absence of serum
[9] = Table 4, read-out: IC50 (μM) (ExoS′-βLA assay)
[10] = Pseudomonas aeruginosa, read-out: ExoS′-βLA IC50, Table 5, P. aeruginosa strain MDM973

Compound | IC50 [1, 5] [µM] | CC50/IC50 (HeLa cells) | pIC50 [1, 6] | Serum Effect [2] | RLU Selectivity [2] | CC50 (in vitro; HeLa CC50) [µM] | also measured
CC(Oc1ccc(Cl)cc1Cl)C(=O)NCCC1=CCCCC1 (racemic) [compound 6467504, N-[2-(1-cyclohexen-1-yl)ethyl]-2-(2,4-dichlorophenoxy)propanamide] | > 100 | – | – | – | – | – | –
CCN1CCOC(CC(=O)Nc2ccc3c(c2)OCCO3)C1=O (stereo not drawn) [Compound 3, N-(2,3-dihydrobenzo[b][1,4]dioxin-6-yl)-2-(4-ethyl-3-oxomorpholin-2-yl)acetamide] | – | >5.0 | 4.70 | 4.8 | 4.1 | > 100 | MIC (P. aeruginosa): > 100 µM; pIC50 [1, 7]: ≥ 4.60; CC50 (in vitro; [8]): ≥ 100 µM; rescue of CHO cells from ExoU cytotoxicity (in words) [3]: failed to inhibit T3SS-mediated translocation; pIC50 [4]: 4.80
NC(=O)/C=C/C(=O)Nc1ccccc1Cl [Compound 7, N1-(2-chlorophenyl)fumaramide] | – | 2.4 | 4.77 | 1.5 | 4.7 | 40 | –
CC(Oc1ccccc1F)C(=O)NCc1ccc2c(c1)OCO2 (stereo not drawn) [compound 7339628] | – | – | – | – | – | – | IC50 [1, 9]: > 100 µM
O=C(CC1Sc2ncnn2C1=O)Nc1ccccc1 (stereo not drawn) [Compound 2, 2-(6-oxo-5,6-dihydrothiazolo[3,2-b][1,2,4]triazol-5-yl)-N-phenylacetamide] | – | 3.1 | 4.92 | 2 | 2.6 | 37 | pIC50 [4]: 5.21
Cc1cc(Cl)ccc1OC(C)C(=O)NCc1ccc2c(c1)OCO2 (racemic) [compound 6116488, N-(1,3-benzodioxol-5-ylmethyl)-2-(4-chloro-2-methylphenoxy)propanamide] | 98 | – | – | – | – | – | –
CC(Oc1ccc(Cl)cc1Cl)C(=O)NCc1ccncc1 (racemic) [compound 6372013, 2-(2,4-dichlorophenoxy)-N-(4-pyridinylmethyl)propanamide] | 59 | – | – | – | – | – | –
Cc1ccc(CNC(=O)C(C)Oc2ccc(Cl)cc2Cl)cc1 (racemic) [compound 6109233, 2-(2,4-dichlorophenoxy)-N-(4-methylbenzyl)propanamide] | 5 | – | – | – | – | – | –
Cc1ccc(N2C(=O)C3C(C2=O)C2(C)C=CC3(C)O2)c(C)c1 (stereo not drawn) [Compound 8, 2-(2,4-dimethylphenyl)-4,7-dimethyl-3a,4,7,7a-tetrahydro-1H-4,7-epoxyisoindole-1,3(2H)-dione] | – | >6.7 | 4.82 | 3.1 | 9.2 | > 100 | MIC (P. aeruginosa): > 100 µM; pIC50 [1, 7]: ≥ 4.60; CC50 (in vitro; [8]): ≥ 100 µM; rescue of CHO cells from ExoU cytotoxicity (in words) [3]: failed to inhibit T3SS-mediated translocation; pIC50 [4]: 3.99
CC(Oc1ccc(Cl)cc1Cl)C(=O)NC(C)C1CC2CCC1C2 (stereo not drawn) [compound 7247834, N-(1-(bicyclo[2.2.1]heptan-2-yl)ethyl)-2-(2,4-dichlorophenoxy)propanamide] | – | – | – | – | – | – | pIC50 [1, 10]: 4.78; RLU-S (RLU Selectivity) [2]: 5.6
Cc1nn(C)cc1CNC(=O)C(C)Oc1ccc(Cl)cc1Cl (racemic) [compound 8804126, 2-(2,4-dichlorophenoxy)-N-[(1,3-dimethyl-1H-pyrazol-4-yl)methyl]propanamide] | 61 | – | – | – | – | – | –
CCc1ccc2nc(N3C(=O)C(O)=C(C(=O)c4cccs4)C3c3ccc([N+](=O)[O-])cc3)sc2c1 (stereo not drawn) [Compound 10, 1-(6-ethylbenzo[d]thiazol-2-yl)-3-hydroxy-5-(4-nitrophenyl)-4-(thiophene-2-carbonyl)-1H-pyrrol-2(5H)-one] | – | 5.3 | 5.52 | 1.8 | 3.8 | 16 | pIC50 [4]: 5.39
COc1ccc(CNC(=O)C(C)Oc2ccc(Cl)cc2Cl)cc1 (racemic) [compound 6375680, 2-(2,4-dichlorophenoxy)-N-(4-methoxybenzyl)propanamide] | 10 | – | – | – | – | – | –
Cc1ccc(NC(=O)/C=C/C(=O)OCC(F)(F)C(F)F)cc1 [Compound 5, (E)-2,2,3,3-tetrafluoropropyl 4-oxo-4-(p-tolylamino)but-2-enoate] | – | 1.3 | 4.66 | 2.6 | 4.5 | 28 | –
CC(Oc1ccc(Cl)cc1Cl)C(=O)NCc1ccc(F)cc1 (racemic) [compound 6380194, 2-(2,4-dichlorophenoxy)-N-(4-fluorobenzyl)propanamide] | 9 | – | – | – | – | – | rescue of CHO cells from ExoU cytotoxicity (in words) [3]: rescued CHO cells
NC(=O)/C=C/C(=O)Nc1ccccc1 [Compound 6, N1-phenylfumaramide] | – | 1.8 | 4.72 | 1.5 | 3.6 | 35 | –
Cc1nnc(-c2ccc(OCC(=O)N3CCc4ccccc43)cc2)o1 [F5054-0019, 1-(indolin-1-yl)-2-(4-(5-methyl-1,3,4-oxadiazol-2-yl)phenoxy)ethanone] | – | – | – | – | – | – | pIC50 [1, 10]: 4.65; RLU-S (RLU Selectivity) [2]: 10.8
Oc1ccc(O)c(Cc2nc3ccccc3[nH]2)c1 [compound 6430631, 2-((1H-benzo[d]imidazol-2-yl)methyl)benzene-1,4-diol] | – | – | – | – | – | – | pIC50 [1, 10]: 4.65; RLU-S (RLU Selectivity) [2]: 4.2
CCN1CCOC(CC(=O)Nc2ccc(F)cc2)C1=O (stereo not drawn) [Compound 4, 2-(4-ethyl-3-oxomorpholin-2-yl)-N-(4-fluorophenyl)acetamide] | – | 6.2 | 4.89 | 4.2 | 3.9 | 100 | MIC (P. aeruginosa): > 100 µM; pIC50 [1, 7]: ≥ 4.60; CC50 (in vitro; [8]): ≥ 100 µM; rescue of CHO cells from ExoU cytotoxicity (in words) [3]: failed to inhibit T3SS-mediated translocation; pIC50 [4]: 5.22
CC(Oc1ccc(Cl)cc1Cl)C(=O)NCc1ccco1 (racemic) [compound 5685325, 2-(2,4-dichlorophenoxy)-N-(2-furylmethyl)propanamide] | 25 | – | – | – | – | – | rescue of CHO cells from ExoU cytotoxicity (in words) [3]: rescued CHO cells
CN1CCN(C(=S)c2ccc(N(C)C)cc2)CC1 [Compound 11, (4-(dimethylamino)phenyl)(4-methylpiperazin-1-yl)methanethione] | – | 0.9 | 4.72 | 1 | 22 | 18 | pIC50 [4]: 4.72
CC(Oc1ccccc1Cl)C(=O)NCc1ccc2c(c1)OCO2 (racemic) [compound 9153915, N-(1,3-benzodioxol-5-ylmethyl)-2-(2-chlorophenoxy)propanamide] | 23 | – | – | – | – | – | –
C[C@@H](Oc1ccc(Cl)cc1Cl)C(=O)NCc1ccc2c(c1)OCO2 [MBX 1684, (R)-N-(benzo[d][1,3]dioxol-5-ylmethyl)-2-(2,4-dichlorophenoxy)propanamide] | 6 | – | – | – | – | – | T3SS inhibitory activity (active/inactive) ([1]; ExoS′-βLA reporter assay): active; pIC50 [1, 7]: ~5.22
CC(C)(Oc1ccc(Cl)cc1Cl)C(=O)NCc1ccc2c(c1)OCO2 [MBX 1685, N-[3,4-(methylenedioxy)benzyl]-2-(2,4-dichlorophenoxy)-2-methylpropanamide] | – | – | – | – | – | – | IC50 [1, 9]: > 100 µM
O=C(COc1ccc(Cl)cc1Cl)NCc1ccc2c(c1)OCO2 [MBX 1668, N-[3,4-(methylenedioxy)benzyl]-2-(2,4-dichlorophenoxy)acetamide] | – | – | – | – | – | – | IC50 [1, 9]: > 100 µM
C[C@H](Oc1ccc(Cl)cc1Cl)C(=O)NCc1ccc2c(c1)OCO2 [MBX 1686, N-[3,4-(methylenedioxy)benzyl]-(S)-2-(2,4-dichlorophenoxy)propanamide] | – | – | – | – | – | – | T3SS inhibitory activity (active/inactive) [1]: inactive; IC50 [1, 9]: > 100 µM; pIC50 ([1]; read-out: IC50 in the ExoS′-βLA secretion assay): < 4.00
COc1ccccc1CNC(=O)C(C)Oc1ccc(Cl)cc1Cl (racemic) [compound 6374948, 2-(2,4-dichlorophenoxy)-N-(2-methoxybenzyl)propanamide] | 12 | – | – | – | – | – | –
pseudolipasin [reference compound] | – | – | – | – | – | – | rescue of CHO cells from ExoU cytotoxicity (in words) [3]: rescued CHO cells from ExoU toxicity with a similar potency
CC(Oc1ccc(Cl)cc1Cl)C(=O)NCc1ccc(Cl)c(Cl)c1 (racemic) [compound 7271715, N-(3,4-dichlorobenzyl)-2-(2,4-dichlorophenoxy)propanamide] | > 100 | – | – | – | – | – | –
CC(Oc1ccc(Cl)cc1Cl)C(=O)N(C)Cc1ccccc1 (racemic) [compound 6468028, N-benzyl-2-(2,4-dichlorophenoxy)-N-methylpropanamide] | 21 | – | – | – | – | – | –
